From patent US9011853B2, “B7-H4 fusion proteins and methods of use thereof” (Amplimmune, Inc., priority 2009, dated 2015)
Several values for one entry are separate records, joined by “and”; a condition that tells them apart may be missing. Identical values can stand only once. Entries after “also recorded” stand apart in the source; their conditions may differ.

Columns and labels:
SJL mice = experiment: PLP139-151-induced R-EAE model, clinical score and relapse; format: in vivo, mouse
Protocol: For PLP139-151-induced R-EAE, 6- to 7-wk-old female SJL mice were immunized s.c. with 100 μL of an emulsion containing 200 μg of M. tuberculosis H37Ra and 50 μg of […] (HSLGKWLGHPDKF) (SEQ ID NO:139) distributed over three spots on the flank. Individual animals were observed daily and clinical scores assessed in a blinded fashion on a 0-5 scale as shown in Table 11 (Miller, et al., Curr. Protocols Immulo., Chapter 12, Unit 15.1). Unless otherwise mentioned, all mice were age and sex-matched for all experiments.
Mice were randomly divided into four groups. For the disease prevention model, B7-H4-Ig or control IgG at 3 mg/kg was injected intraperitoneally (i.p.) on the same day as PLP130-151 priming. For the therapeutic model, B7-H4-Ig or control IgG at 3 mg/kg was given i.p. beginning on approximately Day 21 post PLP130-151 priming. In both cases, B7-H4-Ig was administrated, 3 times a week, for 2-4 weeks.
To determine the therapeutic benefit of B7-H4-Ig, murine B7-H4-Ig was tested in the PLP139-151-induced R-EAE mouse model both for prevention of disease (treatment begun on the same day of disease induction) and therapeutic intervention (treatment begun during the disease remission) settings (FIG. 33). In both cases the disease course was followed for about 2 months to assess clinical disease following the grading system shown in […].
Female SJL mice were first immunized with PLP139-151 peptide emulsified in CFA and then randomized into 2 groups for either prevention or therapeutic treatment. For each treatment regimen there were 2 subgroups, with one subgroup receiving Control IgG and the other subgroup receiving murine B7-H4-Ig. Both Control IgG and murine B7-H4-Ig were given at 3 mg/kg, 3 times a week for 4 weeks. Prevention treatment (FIG. 34) means that murine B7-H4-Ig or Control IgG was administered starting on the day at PLP immunization (t=0). Therapeutic treatment (FIG. 35) means that murine B7-H4-Ig or Control IgG was administered beginning on Day 21 (t=21). The data is presented as the mean clinical score over the 55 day time course with 5 mice per group, and the clinical scores and injection were conducted double blinded.
The effect of B7-H4-Ig treatment on the number of Treg cells in vivo was analyzed in this study. The effect of B7-H4-Ig on the number and phenotype of CD4^+ T cells infiltrating into the CNS following B7-H4-Ig treatment, the relevant site for activity in vivo, was determined. […] SJL mice were first immunized with PLP139-151 peptide. B7-H4-Ig treatment started during remission (Day 23). Mice received mouse Control IgG, 100 μg, or B7-H4-Ig at either 60 or 300 μg, 3 times per week for 2 weeks or 4 weeks. Half of the animals (5 mice from each group) were euthanized on Day 35, after 6 doses of B7-H4-Ig. The rest of the animals (5 mice from each group) were euthanized on Day 50, after 12 doses of B7-H4-Ig. Mouse spleens, draining lymph nodes, spinal cords and brains were collected, tissues were made into a single cell suspension and counted via the use of a hemocytometer, and analyzed for the presence of effector/memory CD4^+ T cells (CD4^+CD44^+) and Treg cells (CD4^+CD25^+FoxP3^+). Whole cerebellar and lumbar spinal cord tissue samples were snap frozen and processed as described above to analyze the number of CD4^+ and FoxP3^+ cells present within the CNS by histology.
Human B7-H4-Ig was also tested for its therapeutic efficacy in the PLP139-151-induced R-EAE mouse model. […]

DBA/1 mice = experiment: Therapeutic CIA study AA#79 (female mice), disease score; format: in vivo, mouse
Protocol: DBA/1 mice (10 per group) aged 7-9 weeks were used for the CIA model. Mice from several vendors (Jackson Laboratories, Harlan Laboratories, and Taconic Farms) were tested and it was determined that Taconic mice are most appropriate for the CIA studies. Taconic mice develop more consistent and severe disease symptoms and show continued disease progression, while mice from the other vendors often show stable, less severe disease, even in the absence of treatment. female (F) mice in AA#79 and male (M) mice in AA#80, were tested to determine which gender to use in future experiments.
On the day before the study is initiated, the hair on the right flank of each mouse was removed using an electric clipper. A metal identification tag was placed on the right ear of each mouse. On Day 0, mice were immunized with 100 μL of chicken collagen type II/Complete Freund's Adjuvant (CII/CFA) emulsion in the right flank. On Day 20, the hair on the left flank of each mouse was removed using an electric clipper, and on Day 21, mice were immunized with 100 μL of chicken collagen type II/Incomplete Freund's Adjuvant (CII/IFA) emulsion in the left flank. Pre-filled syringes of CII/CFA and CII/IFA emulsion purchased from Hooke Laboratories were used to ensure consistent dosing with and potency of the immunogen.
Early arthritis symptoms, such as erythema and mild swelling, usually appear on Day 21, and on Day 28, more severe symptoms such as swelling in many digits and inflammation extending to the tarsal joint are typically present. Each limb is evaluated for severity of arthritis symptoms three times a week using a widely accepted arthritis severity score system, shown in Table 2. The scores from each of the 4 limbs are summed to yield the disease score of each mouse. […]
Treatment was initiated when the average disease score for the study animals was greater than four. This corresponded to Day 29 in AA#79 and Day 24 in […]. By waiting until animals are symptomatic, it was ensured that the model is performed in a therapeutic rather than prophylactic mode.
B7-H4-Ig, RPA110010, and murine B7-H4-Ig proteins were administered by intraperitoneal (IP) injection 3 times a week for a total of 8 doses. RPA110010 is an extracellular domain variant of B7-H4-Ig, SEQ ID NO:126. Control murine and human IgG proteins were given once a week for a total of 3 doses. […] All proteins were diluted to the desired concentration (500 μg in 500 μL, or 1 mg/mL) with sterile PBS immediately before injection. Vehicle control mice receive Amplimmune formulation buffer diluted 1:10 in PBS, with an injection volume of 500 μL.

Substance: B7-H4-Ig: B7-H4 extracellular domain fused to Ig Fc; bare label is the human protein in Example 3, murine protein in Examples 1, 2, 5, 7-11
- clinical scores (average), R-EAE (SJL mice; 3 mg/kg i.p. 3 times a week for 4 weeks, preventative (t=0) and therapeutic (t=21) regimens, 0-5 scale (FIGS. 34, 35)): 0-0.5
- disease symptoms during the acute phase of R-EAE (SJL mice; 1st in vivo study, treatment from the day of PLP139-151/CFA priming): did not affect disease symptoms during the acute phase of R-EAE
- mean clinical score, primary relapse (SJL mice; both 3 mg/kg (60 μg/dose) and 15 mg/kg (300 μg/dose), three times a week from day 23 (FIG. 46)): significantly prevented the primary relapsing
- disease scores, AA#79 (DBA/1 mice; female DBA/1 mice, 20 mg/kg IP 3× weekly, 8 doses from Day 29, vs control groups (FIG. 7), 20 mg/kg): lower disease scores than mice in the control groups; also recorded: prolonged period of stable disease scores

Substance: Human B7-H4-Ig: human B7-H4 extracellular domain fused to hinge, CH2 and CH3 regions of human immunoglobulin Cγ1 chain; representative SEQ ID NOs:114-137
- mean clinical score, primary disease relapse (SJL mice; 5 or 25 mg/kg 3 times a week for 4 weeks from Day 23, vs Synagis (FIG. 48A)): reduction of mean clinical score
- long-term relapse rate (SJL mice; 5 or 25 mg/kg 3 times a week for 4 weeks from Day 23, vs Synagis (FIG. 48B)): reduction in long-term relapse rate
- CIA disease score (DBA/1 mice; AA#79, Study Day 12, individual mouse (Tag#)): 1 (2×) and 0 (4×)
- CIA disease score (DBA/1 mice; AA#79, Study Day 18, individual mouse (Tag#)): 2 (2×) and 1 (3×) and 0
- CIA disease score (DBA/1 mice; AA#79, Study Day 22, individual mouse (Tag#)): 2 (5×) and 1
- CIA disease score (DBA/1 mice; AA#79, Study Day 25, individual mouse (Tag#)): 2 (3×) and 3 (2×) and 4
- CIA disease score (DBA/1 mice; AA#79, Study Day 27, individual mouse (Tag#)): 3 (2×) and 5 and 4 (3×)
- CIA disease score (DBA/1 mice; AA#79, Study Day 29, individual mouse (Tag#)): 6 and 5 (2×) and 4 (2×) and 7
- CIA disease score (DBA/1 mice; AA#79, Study Day 32, individual mouse (Tag#)): 5 (2×) and 4 (2×) and 2
- CIA disease score (DBA/1 mice; AA#79, Study Day 34, individual mouse (Tag#)): 4 (2×) and 2 and 5 (2×)
- CIA disease score (DBA/1 mice; AA#79, Study Day 36, individual mouse (Tag#)): 4 and 5 and 1 and 6 and 3 and 12
- CIA disease score (DBA/1 mice; AA#79, Study Day 39, individual mouse (Tag#)): 5 and 12 and 6 and 9 and 3 and 11
- CIA disease score (DBA/1 mice; AA#79, Study Day 41, individual mouse (Tag#)): 5 (2×) and 12 and 7 and 10 (2×)
- CIA disease score (DBA/1 mice; AA#79, Study Day 43, individual mouse (Tag#)): 3 (2×) and 10 (2×) and 6 and 9
- CIA disease score (DBA/1 mice; AA#79, Study Day 46, individual mouse (Tag#)): 4 and 9 and 10 (2×) and 11 and 3
- CIA disease score (DBA/1 mice; AA#79, Study Day 48, individual mouse (Tag#)): 5 and 10 (3×) and 6 and 11
- CIA disease score (DBA/1 mice; AA#79, Study Day 50, individual mouse (Tag#)): 6 (2×) and 9 (2×) and 10 and 12
- CIA disease score (DBA/1 mice; AA#79, Study Day 54, individual mouse (Tag#)): 3 and 10 (2×) and 13 (2×) and 5
- CIA disease score (DBA/1 mice; AA#79, Study Day 57, individual mouse (Tag#)): 5 (2×) and 11 and 10 (2×) and 12
